# Test results reported in US8883841B2, “Oncogenic ras-specific cytotoxic compound and methods of use thereof” (The Board of Regents of the University of Texas System, priority 2005, dated 2014).
# Experiments:
# Format in all cases: cell-based, human
# [1] = test system: phosphorylated PKCiota; assay: Western blot analysis of phosphorylated PKCiota; conditions: 12 h
# Description: Ras Signaling Pathway and Molecular Mechanisms of Oncrasin-induced apoptosis. To investigate molecular mechanisms of apoptosis induction by Oncrasin compounds, levels several proteins that are involved in apoptosis and/or involved in Ras signaling pathways were determined, including Bax, Bik, Bc12, Bcl-XL, Raf-1, B-Raf, Akt, Mst1 and atypical protein kinase C (aPKC) zeta and PKCiota. To study which molecules are affected by Oncrasin treatment, T29, T29Kt1 and H460 cells were treated with Oncrasin-1 at an optimal concentration, around IC60 to IC80 for T29Kt1 and H460 cells. Cell lysates were collected 12 h after the treatment and subjected to Western blot analysis.
# [2] = test system: TNFα-mediated NFκB activation; assay: Electrophoretic mobility shift assay (EMSA) of NFκB activity; conditions: 12 h, TNFα 1 ng/ml
# Description: FIGS. 11A-11C Suppression of TNFα-induced NFκB activation. NKκB reporter plasmid assay. T29K cells were transfected with pNFκB-Luc and pCMV-lacZ. 12 h later, the cells were treated with TNFα (1 ng/ml) with or without (FIG. 11A) Oncrasin-1 (10 μM) or (FIG. 11B) Sulindac (10 μm). The luciferase activity was determined at 8 h after the treatment and normalized with beta-gal activity. (FIG. 11C) H460 and T29K cells were treated with DMSO or different concentrations of Oncrasin-1 as indicated for 12 h, with or without TNFα (1 ng/ml). The NFκB activity was analyzed by EMSA.
# Suppression of NFκB. In a separated study, the effect of Oncrasin compounds on NF-κB activity was assessed. Nuclear factor-κB (NF-κB)/Rel represents a group of structurally related and evolutionarily conserved transcriptional factors that play critical roles in chronic and acute inflammatory diseases, autoimmune diseases and various type of cancers (Karin and Neriah, 2000; Karin and Karin, 2006; Barnes et al., 1997). In unstimulated cells, most NF-κB/Rel dimers are bound to IκBs and retained in the cytoplasm. Upon a various stimulations, IκBs are phosphorylated and rapidly degraded, releasing NF-κB, which then enters the nucleus and executes transcriptional functions. […] The luciferase activity was determined and normalized for transfection with beta-galactosidase activity. […]
# [3] = test system: phosphorylated RNA polymerase II and SR proteins; assay: Western blot for phosphorylated RNA polymerase II and SR proteins; conditions: 10 μM (T29Kt1) or 1 μM (H460), 12 h
# Description: FIGS. 16A and 16B Effect on RNA processing machinary. (FIG. 16A) T29, T29Kt1, and H460 cells were treated with 10 μM Oncrasin-1 (T29 and T29Kt1) or 1 μM Oncrasin-1 (H460). Twelve hours later, cells were harvested for Western blot analysis for phosphorylation of RNA polymerase II and SR proteins. Cells treated with DMSO were used as control (C). (T) cells treated with Oncrasin-1. Arrows indicate reduced phosphorylation of the polymerase II (pPolII) and SR proteins (pSR) (FIG. 16B) In vitro transcription assay with HeLa cell nuclear extracts (Promoega). The assay was performed following manufacturers instructions. The concentrations used are indicated on the top of the panel. DRB was used as positive control for transcription inhibition.
# To further test the role of RNA transcription and splicing in Oncrasin-mediated antitumor activity the phosphorylation of the largest subunit of RNA polymerase II and splicing factors were analyzed. T29, T29Kt1 and H460 cells were treated with Oncrasin-1 at an optimal concentration, around IC60 to IC80 for T29Kt1 and H460 cells. Cell lysates were collected 12 h after the treatment and subjected to Western blot analysis with antibodies specific for phosphorylated RNA polymerase If (H5, Covance Research Products, Inc., Berkeley, Calif.) and SR proteins (1H4, Zymed, obtained from Invitrogen, Carlsbad, Calif.).
smiles,measurement,setting,value
"O=Cc1cn(Cc2ccc(Cl)cc2)c2ccccc12 [Oncrasin K001, 1H-Indole-3-carboxaldehyde, 1-[(4-chlorophenyl)methyl]-(9CI)]",phosphorylated PKCiota in H460 and T29K cells,[1],increase in phosphorylated PKCiota
same,phosphorylated PKCiota in T29 cells,[1],but not in Oncrasin-1 resistant T29 cells
same,"concentration that effectively suppresses TNFα-mediated NFκB activation, H460 cells",[2],≥ 1 µM
same,"concentration that effectively suppresses TNFα-mediated NFκB activation, T29Kt1 cells",[2],≥ 1 µM
same,phosphorylated RNA polymerase II and certain SR proteins,[3],dramatic suppression
